Reference: patent EP2951180B1, “2,6,7,8 SUBSTITUTED PURINES AS HDM2 INHIBITORS” (Merck Sharp & Dohme Corp., priority 2013, dated 2014)

target: T1, HDM2 (Homo sapiens, UniProt Q00987); assay: HDM2 FRET assay (inhibition of binding of FITC labeled p53-pocket peptide to HDM2); conditions: 0.5 nM HDM2 (residues 17 to 125), 3nM peptide, two hour incubation at room temperature; read-out: FRET IC50
T1 construct: Thioredoxin (N); made in house; host or cells: E. coli strain BL21(DE3)Rosetta
How it was run: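 Displacement of FITC-p53 peptide (3 nM) from His-tagged HDM2 (0.5 nM) is measured by Tb-to-fluorescein FRET in PBS, 0.01% BSA, 0.01% Tween-20. IC50 values derive from 10-point curves.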

T1 sequence (Q00987 17-125): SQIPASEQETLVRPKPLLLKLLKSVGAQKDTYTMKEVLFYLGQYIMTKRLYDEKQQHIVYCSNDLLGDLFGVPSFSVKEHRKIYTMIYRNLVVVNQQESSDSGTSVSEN

Question: `C[C@H]1CC[C@H](Cn2c(N3CCOC[C@H]3c3ccccc3)nc3nc(-c4noc(=O)[nH]4)nc(-c4cc(Cl)ccc4F)c32)CC1` [Example 16.25, 3-{6-(5-chloro-2-fluorophenyl)-7-[(trans-4-methylcyclohexyl)methyl]-8-[(3R)-3-phenylmorpholin-4-yl]-7H-purin-2-yl} -1,2,4-oxadiazol-5(4H)-one] was tested. Which IC50 did it give?
Answer: 1.63 nM

Question: For `C[C@H]1CC[C@H](Cn2c(N3CCOC[C@H]3c3ccccc3)nc3nc(-c4noc(=O)[nH]4)nc(-c4cncc(Cl)c4)c32)CC1` [Example 16.26, 3-{6-(5-chloropyridin-3-yl)-7-[(trans-4-methylcyclohexyl)methyl]-8-[(3R)-3-phenylmorpholin-4-yl]-7H-purin-2-yl}-1,2,4-oxadiazol-5(4H)-one], which IC50 is on record?
Answer: 0.517 nM

Question: For `Cc1cccc(-c2nc(-c3noc(=O)[nH]3)nc3nc(N4CCOCC4)n(C[C@H]4CC[C@H](C)CC4)c23)c1` [Example 16.27, 3-{7-[(trans-4-methylcyclohexyl)methyl]-6-(3-methylphenyl)-8-morpholin-4-yl-7H-purin-2-yl}-1,2,4-oxadiazol-5(4H)-one], which IC50 is on record?
Answer: 334 nM

Question: Which IC50 does the source give for `Cc1cccc(-c2nc(-c3noc(=O)[nH]3)nc3nc(N4CCOC[C@H]4C)n(C[C@H]4CC[C@H](C)CC4)c23)c1` [Example 16.28, 3-{7-[(trans-4-methylcyclohexyl)methyl]-8-[(3R)-3-methylmorpholin-4-yl]-6-(3-methylphenyl)-7H-purin-2-yl}-1,2,4-oxadiazol-5(4H)-one] here?
Answer: 38.7 nM

Question: With `CC1(C)COCCN1c1nc2nc(-c3noc(=O)[nH]3)nc(-c3cccc(Cl)c3)c2n1C[C@H]1CC[C@H](C)CC1` [Example 16.29, 3-{6-(3-chlorophenyl)-8-(3,3-dimethylmorpholin-4-yl)-7-[(trans-4-methylcyclohexyl)methyl]-7H-purin-2-yl}-1,2,4-oxadiazol-5(4H)-one] as the molecule, how does the IC50 read?
Answer: 5.2 nM

Question: How did the IC50 turn out when `CCc1cccc(-c2nc(-c3noc(=O)[nH]3)nc3nc(N4CCOC[C@H]4c4ccccc4)n(C[C@H]4CC[C@H](C)CC4)c23)c1` [Example 16.30, 3-{6-(3-ethylphenyl)-7-[(trans-4-methylcyclohexyl)methyl]-8-[(3R)-3-phenylmorpholin-4-yl]-7H-purin-2-yl}-1,2,4-oxadiazol-5(4H)-one] was run?
Answer: 2.77 nM

Question: `C[C@H]1CC[C@H](Cn2c(N3CCOC[C@H]3c3ccccc3)nc3nc(-c4noc(=O)[nH]4)nc(-c4cccc(C(F)F)c4)c32)CC1` [Example 16.31, 3-{6-[3-(difluoromethyl)phenyl]-7-[(trans-4-methylcyclohexyl)methyl]-8-[(3R)-3-phenylmorpholin-4-yl]-7H-purin-2-yl}-1,2,4-oxadiazol-5(4H)-one] was tested. Which IC50 did it give?
Answer: 7.11 nM

Question: `Cc1cccc(-c2nc(-c3n[nH]c(=O)o3)nc3nc(N4CCOC[C@H]4C)n(C[C@H]4CC[C@H](C)CC4)c23)c1` [Example 16.32, 5-{7-[(trans-4-methylcyclohexyl)methyl]-8-[(3R)-3-methylmorpholin-4-yl]-6-(3-methylphenyl)-7H-purin-2-yl} -1,3,4-oxadiazol-2(3H)-one] was tested. Which IC50 did it give?
Answer: 60.5 nM

Question: With `C[C@H]1CC[C@H](Cn2c(N3CCOCC3)nc3nc(-c4n[nH]c(=O)o4)nc(-c4cccc(Cl)c4)c32)CC1` [Example 16.33, 5-{6-(3-chlorophenyl)-7-[(trans-4-methylcyclohexyl)methyl]-8-morpholin-4-yl-7H-purin-2-yl}-1,3,4-oxadiazol-2(3H)-one] as the molecule, how does the IC50 read?
Answer: 163 nM

Question: `Cc1cccc(-c2nc(-c3noc(=O)[nH]3)nc3nc(N4CCOC[C@@H]4C)n(C[C@H]4CC[C@H](C)CC4)c23)c1` [Example 16.34, 3-{7-[(trans-4-methylcyclohexyl)methyl]-8-[(3S)-3-methylmorpholin-4-yl]-6-(3-methylphenyl)-7H-purin-2-yl}-1,2,4-oxadiazol-5(4H)-one] was tested. Which IC50 did it give?
Answer: 503 nM

Question: How did the IC50 turn out when `C[C@H]1CC[C@H](Cn2c(N3CCOC[C@H]3c3ccccc3)nc3nc(-c4n[nH]c(=O)o4)nc(-c4cncc(Cl)c4)c32)CC1` [Example 16.35, 5-{6-(5-chloropyridin-3-yl)-7-[(trans-4-methylcyclohexyl)methyl]-8-[(3R)-3-phenylmorpholin-4-yl]-7H-purin-2-yl} -1,3,4-oxadiazol-2(3H)-one] was run?
Answer: 0.824 nM

Question: Which IC50 does the source give for `CC(C)(O)c1ccnc(-c2nc3nc(-c4noc(=O)[nH]4)nc(-c4cccc(Cl)c4)c3n2C[C@H]2CC[C@H](C)CC2)c1` [Example 16.36, 3-{6-(3-chlorophenyl)-8-[4-(1-hydroxy-1-methylethyl)pyridin-2-yl]-7-[(trans-4-methylcyclohexyl)methyl]-7H-purin-2-yl}-1,2,4-oxadiazol-5(4H)-one] here?
Answer: 26.2 nM

Question: `Cc1cccc(-c2nc(-c3n[nH]c(=O)o3)nc3nc(N4CCOC[C@@H]4C)n(C[C@H]4CC[C@H](C)CC4)c23)c1` [Example 16.37, 5-{7-[(trans-4-methylcyclohexyl)methyl]-8-[(3S)-3-methylmorpholin-4-yl]-6-(3-methylphenyl)-7H-purin-2-yl} -1,3,4-oxadiazol-2(3H)-one] was tested. Which IC50 did it give?
Answer: 1000 nM

Question: How did the IC50 turn out when `C[C@H]1CC[C@H](Cn2c(N[C@@H](CO)c3ccccc3)nc3nc(-c4noc(=O)[nH]4)nc(-c4cccc(Cl)c4)c32)CC1` [Example 16.38, 3-{6-(3-chlorophenyl)-8-{[(1R)-2-hydroxy-1-phenylethyl]amino}-7-[(trans-4-methylcyclohexyl)methyl]-7H-purin-2-yl}-1,2,4-oxadiazol-5(4H)-one] was run?
Answer: 1.95 nM

Question: Which IC50 does the source give for `CC(C)C[C@H]1COCCN1c1nc2nc(-c3noc(=O)[nH]3)nc(-c3cccc(Cl)c3)c2n1C[C@H]1CC[C@H](C)CC1` [Example 16.39, 3-{6-(3-chlorophenyl)-7-[(trans-4-methylcyclohexyl)methyl]-8-[(3S)-3-(2-methylpropyl)morpholin-4-yl]-7H-purin-2-yl}-1,2,4-oxadiazol-5(4H)-one] here?
Answer: 47.5 nM

Question: Which IC50 does the source give for `CC(C)C[C@@H]1COCCN1c1nc2nc(-c3noc(=O)[nH]3)nc(-c3cccc(Cl)c3)c2n1C[C@H]1CC[C@H](C)CC1` [Example 16.40, 3-{6-(3-chlorophenyl)-7-[(trans-4-methylcyclohexyl)methyl]-8-[(3R)-3-(2-methylpropyl)morpholin-4-yl]-7H-purin-2-yl}-1,2,4-oxadiazol-5(4H)-one] here?
Answer: 4.59 nM

Question: For `CC(C)(CO)Nc1nc2nc(-c3noc(=O)[nH]3)nc(-c3cccc(Cl)c3)c2n1C[C@H]1CC[C@H](C)CC1` [Example 16.41, 3-{6-(3-chlorophenyl)-8-[(2-hydroxy-1,1-dimethylethyl)amino] -7-[(trans-4-methylcyclohexyl)methyl]-7H-purin-2-yl}-1,2,4-oxadiazol-5(4H)-one], which IC50 is on record?
Answer: 17.8 nM

Question: How did the IC50 turn out when `CC(C)[C@@H]1COCCN1c1nc2nc(-c3noc(=O)[nH]3)nc(-c3cccc(Cl)c3)c2n1C[C@H]1CC[C@H](C)CC1` [Example 16.42, 3-{6-(3-chlorophenyl)-7-[(trans-4-methylcyclohexyl)methyl]-8-[(3R)-3-(1-methylethyl)morpholin-4-yl]-7H-purin-2-yl}-1 ,2,4-oxadiazol-5(4H)-one] was run?
Answer: 3.62 nM

Question: How did the IC50 turn out when `C[C@H]1COCCN1c1nc2nc(-c3noc(=O)[nH]3)nc(-c3cncc(Cl)c3)c2n1C[C@H]1CC[C@H](C)CC1` [Example 16.43, 3-{6-(5-chloropyridin-3-yl)-7-[(trans-4-methylcyclohexyl)methyl]-8-[(3S)-3-methylmorpholin-4-yl]-7H -purin-2-yl}-1,2,4-oxadiazol-5(2H)-one] was run?
Answer: 239 nM
